This is an account of results in article PMC7927096, “Dipeptides of S-Substituted Dehydrocysteine as Artzyme Building Blocks: Synthesis, Complexing Abilities and Antiproliferative Properties” (International Journal of Molecular Sciences, 2021).

The test system of series [1] is Balb/3T3 (non-tumorigenic murine fibroblasts). Nature of the series: Antiproliferative activity, sulforhodamine B assay. It counts as cell-based. The settings on record: Mus musculus, BALB/3T3; SRB, 72 h incubation; non-tumorigenic line; read-out: IC50 ± SD, Balb/3T3. The text has this: (§1) Ten different human cancer cell lines (including drug-resistant sublines) and one non-tumorigenic murine fibroblasts cell line were used to determine antiproliferative activity of the tested compounds. The MDA-MB-231 (breast adenocarcinoma), UM-UC-3 (urinary bladder transitional cell carcinoma), LoVo (colorectal adenocarcinoma), LoVo^Dx (colorectal adenocarcinoma, doxorubicin-resistant) and Balb/3T3 (non-tumorigenic murine fibroblasts) were purchased from the American Type Culture Collection (ATCC; Rockville, USA). The MCF-7 (breast adenocarcinoma) and A549 (lung carcinoma) were purchased from European Collection of Authenticated Cell Cultures (ECACC; Porton Down, UK). The UM-UC-3^CDDP, UM-UC-3^GEM, UM-UC-3^VBL, and UM-UC-3^CDDP/GEM cell lines were established at Hirszfeld Institute of Immunology and Experimental Therapy of the Polish Academy of Sciences (HIIET, PAS, Wroclaw, Poland) by the continuous exposure to the increasing concentrations of corresponding cytostatics.
(§2) The Balb/3T3 and UM-UC-3 were cultured in Dulbecco’s Modified Eagle Medium (DMEM; Life Technologies, UK) supplemented with 10% (v/v) fetal bovine serum (FBS; GE Healthcare HyClone, Logan, USA) and 2 mM L-glutamine (Sigma-Aldrich, Poznań, Poland). The UM-UC-3^CDDP, UM-UC-3^GEM, UM-UC-^3VBL, and UM-UC-3^CDDP/GEM culture media were additionally supplemented with appropriate cytostatics: 2.5 µg/mL cisplatin (Accord, Warsaw, Poland) for UM-UC-3^CDDP, 500 nM gemcitabine (Sigma-Aldrich, Poznań, Poland) for UM-UC-3^GEM, 5 nM vinblastine (Sigma-Aldrich, Poznań, Poland) for UM-UC-3VBL, 2.5 µg/mL cisplatin and 500 nM gemcitabine for UM-UC-3^CDDP/GEM. The LoVo cell line was cultured in F-12K Nutrient Mixture (F-12K; Corning, Corning, USA), supplemented with 10% (v/v) FBS. LoVo^Dx culture medium was additionally supplemented with doxorubicin 100 ng/mL (Accord, Warsaw, Poland). The MCF-7 cell line was cultured in Eagle’s medium (HIIET, PAS, Wroclaw, Poland), supplemented with 10% (v/v) FBS (Sigma-Aldrich, Poznań, Poland), 2 mM L-glutamine, MEM non-essential amino acid solution 1% (v/v) (Sigma-Aldrich, Poznań, Poland), insulin 8 µg/mL (Sigma-Aldrich, Poznań, Poland). The MDA-MB-231 cell line was cultured in RPMI 1640 (HIIET, PAS, Wroclaw, Poland), supplemented with 10% (v/v) FBS (Sigma-Aldrich, Poznań, Poland) and 2 mM L-glutamine. The A 549 cell line was cultured in OptiMEM (HIIET, PAS, Wroclaw, Poland), supplemented with 5% (v/v) FBS (GE Healthcare HyClone, Logan, USA) and 2 mM L-glutamine. All culture media were supplemented with antibiotics—100 μg/mL streptomycin (Polfa Tarchomin, Warsaw, Poland) and 100 U/mL penicillin (Sigma-Aldrich, Poznań, Poland).
(§3) All cell lines were cultured in a humidified atmosphere at 37 °C with 5% (v/v) CO2 and passaged twice a week using EDTA-Trypsin solution (pH 8; HIIET, Wroclaw, Poland) as a detachment agent.
(§4) All compounds, for antiproliferative activity assessment, were stored at […] as 50 mM solutions in dimethyl sulfoxide (DMSO; Avantor Performance Materials, Gliwice, Poland).
(§5) The cells were seeded on 384-well plates (Greiner Bio One, Kremsmünster, Austria) at 1 × 10^3 cells/well density for A 549, UM-UC-3, UM-UC-3^CDDP, UM-UC-3^GEM, UM-UC-3^CVBL and UM-UC-3^CDDP/GEM cell lines. Other cell lines were seeded at 2 × 10^3 cells/well. After overnight incubation, compounds were applied at eight concentrations (ranging from 100 µM to 0.03 µM). After 72 h incubation, the sulforhodamine B (SRB) assay based on Skehan et al. was carried out with slight modifications. In brief, 50 µL of the medium was replaced with 30 µL/well of 25% (w/v) trichloroacetic acid (Avantor Performance Materials, Gliwice, Poland). After 1 h incubation at room temperature, plates were washed three times with tap water, and 20 µL of 0.1% (w/v) solution of sulforhodamine B (Sigma-Aldrich, Poznan, Poland) in 1% (v/v) acetic acid (Avantor Performance Materials, Gliwice, Poland) was added to each well. […]

Series [2] deals with ten diverse human cancer cells lines and murine non-tumorigenic cell line (Balb/3T3). Nature of the series: Antiproliferative screen, whole cell line panel (statements in words). The format is cell-based. To be noted: SRB; for antiproliferative activity (in words): across cell lines; for activity against resistant versus parent cell lines (in words): 10d: with exception of the line resistant to gemcitabine.
Excerpt: as §1, §2, §3, §4, §5

The subject of series [3] is UM-UC-3 (urinary bladder transitional cell carcinoma). The series can be described thus: Antiproliferative activity, sulforhodamine B assay. The format is cell-based, human. To be noted: Homo sapiens, UMUC3; SRB, 72 h incubation; read-out: IC50 ± SD, UM-UC-3.
Excerpt: as §1, §2, §3, §4, §5

For series [4], the system named is MCF-7 (breast adenocarcinoma). Nature of the series: Antiproliferative activity, sulforhodamine B assay. To be noted: Homo sapiens, MCF7; SRB, 72 h incubation; read-out: IC50 ± SD, MCF-7. It counts as cell-based, human.
Excerpt: as §1, §2, §3, §4, §5

Series [5] deals with UM-UC-3^CDDP (cisplatin-resistant). The series can be described thus: Antiproliferative activity, sulforhodamine B assay. It counts as cell-based, human. The settings on record: Homo sapiens, SRB, 72 h incubation, read-out: IC50 ± SD, UM-UC-3^CDDP.
Excerpt: as §1, §2, §3, §4, §5

The test system of series [6] is UM-UC-3^VBL (vinblastine-resistant). Nature of the series: Antiproliferative activity, sulforhodamine B assay. It counts as cell-based, human. To be noted: Homo sapiens, SRB, 72 h incubation, read-out: IC50 ± SD, UM-UC-3^VBL.
Excerpt: as §1, §2, §3, §4, §5

In series [7] the test system is UM-UC-3^CDDP/GEM (resistant to cisplatin and gemcitabine). Nature of the series: Antiproliferative activity, sulforhodamine B assay. To be noted: Homo sapiens, SRB, 72 h incubation, read-out: IC50 ± SD, UM-UC-3^CDDP/GEM. It counts as cell-based, human.
Excerpt: as §1, §2, §3, §4, §5

The test system of series [8] is UM-UC-3^GEM (gemcitabine-resistant). Nature of the series: Antiproliferative activity, sulforhodamine B assay. It counts as cell-based, human. The settings on record: Homo sapiens, SRB, 72 h incubation, read-out: IC50 ± SD, UM-UC-3^GEM.
Excerpt: as §1, §2, §3, §4, §5

A further series concerns A549 (lung carcinoma). The series can be described thus: Antiproliferative activity, sulforhodamine B assay. It counts as cell-based, human. To be noted: Homo sapiens, A549; SRB, 72 h incubation; read-out: IC50 ± SD, A-549.
Excerpt: as §1, §2, §3, §4, §5

The test system of series [9] is LoVo^DX (colorectal adenocarcinoma, doxorubicin-resistant). The series can be described thus: Antiproliferative activity, sulforhodamine B assay. It counts as cell-based, human. The settings on record: Homo sapiens, LoVo/DX, SRB, 72 h incubation, read-out: IC50 ± SD, LoVo^DX.
Excerpt: as §1, §2, §3, §4, §5

In series [10] the test system is MDA-MB-231 (breast adenocarcinoma). Nature of the series: Antiproliferative activity, sulforhodamine B assay. The settings on record: Homo sapiens, MDA-MB-231; SRB, 72 h incubation; read-out: IC50 ± SD, MDA-MB-231. It counts as cell-based, human.
Excerpt: as §1, §2, §3, §4, §5

Series [11] deals with LoVo (colorectal adenocarcinoma). The series can be described thus: Antiproliferative activity, sulforhodamine B assay. The settings on record: Homo sapiens, LoVo; SRB, 72 h incubation; read-out: IC50 ± SD, LoVo. It counts as cell-based, human.
Excerpt: as §1, §2, §3, §4, §5

On the set-up of series [12]: method as in PMID 12031802. To be noted: Cu(II) complex; cited from earlier work.

As for `COC(=O)/C(=C/Sc1nc2cc(OC)ccc2o1)NC(=O)CNC(=O)OC(C)(C)C` [Compound 6c, Boc-Gly-ΔCys(S-5-methoxybenzoxazole)-OMe], the IC50 in series [1] worked out at 5.3 ± 1.2 µM; in series [3] it was 7.2 ± 0.6 µM; in series [4], 5.3 ± 0.9 µM; in series [5], 7.8 ± 0.7 µM; in series [6], 6 ± 1.5 µM; in [7], 8.6 ± 1.4 µM. Besides, the IC50 in series [8] stood at 5.2 ± 0.6 µM; in the series on A549 (lung carcinoma), 6.2 ± 1.4 µM; in [9] it was 6.4 ± 0.4 µM; in series [10], 5 ± 0.8 µM; in [11], 8.7 ± 1.1 µM. Moreover, the “antiproliferative activity (in words)” value in series [2] is “most potent representatives”. In addition, the “activity against resistant versus parent cell lines (in words)” value in series [2] was “equipotential towards both resistant and parent cell lines”.
As to `COC(=O)/C(=C/Sc1nc2ccccc2s1)NC(=O)CNC(=O)OC(C)(C)C` [Compound 6d, Boc-Gly-ΔCys(S-benzothiazole)-OMe], the IC50 in series [1] came out at 5.8 ± 0.9 µM; in series [3] it was 4.6 ± 0.4 µM; in series [4] it was 4.5 ± 0.5 µM; in series [5], 6.4 ± 0.4 µM; in series [6] it was 4.9 ± 0.8 µM; in [7] it was 6.2 ± 0.8 µM. The IC50 came out at 4.6 ± 0.5 µM in series [8]; 5.6 ± 0.9 µM in the series on A549 (lung carcinoma); 6.2 ± 0.6 µM in series [9]; 6.1 ± 0.6 µM in series [10]; 6.7 ± 0.7 µM in [11]. Moreover, in series [2], the “antiproliferative activity (in words)” value was “most potent representatives”. Further, the “activity against resistant versus parent cell lines (in words)” value in [2] is “equipotential towards both resistant and parent cell lines”.
With `NCC(=O)N/C(=C\c1ccccc1)C(=O)O` [Gly(Z)ΔPhe], the “logβ of the analogous species with {N-NH2, Namide} binding mode” value in series [12] is listed as 2.19.
